Measured values from ChEMBL document CHEMBL3102791, “Synthesis and biological evaluation of 2-aminothiazole derivatives as antimycobacterial and antiplasmodial agents” (Bioorg Med Chem Lett, 2014).

Legend:
Details in all cases: read-out: Stability
[1] = Metabolic stability in rat liver microsomes assessed as compound remaining at 1 uM after 30 mins by HPLC-MS/MS analysis; assay type: ADME
[2] = Metabolic stability in BALB/c mouse liver microsomes assessed as compound remaining at 1 uM after 30 mins by HPLC-MS/MS analysis; assay type: ADME, Microsome
[3] = Metabolic stability in human liver microsomes assessed as compound remaining at 1 uM after 30 mins by HPLC-MS/MS analysis; assay type: ADME

SMILES	remaining at 0.5 h, 1 µM [1] [%]	remaining at 0.5 h, 1 µM [2] [%]	remaining at 0.5 h, 1 µM [3] [%]
O=C(Nc1nc(-c2ccccn2)cs1)c1ccccc1	54.5	7.6	27.5
O=C(Nc1nc(-c2ccccn2)cs1)c1cccc(Br)c1	> 99	82.4	> 99
O=C(Nc1nc(-c2ccccn2)cs1)c1ccncc1	47.8	3.71	53.8
N#Cc1ccc(C(=O)Nc2nc(-c3ccccn3)cs2)cc1	64.6	1.61	24.1
O=C(Nc1nc(-c2ccccn2)cs1)c1ccc(Cl)cc1	42.1	1.33	8.4
O=C(Nc1nc(-c2ccccn2)cs1)c1ccc(F)cc1	72.1	3.61	14.2
